Assay results published in publication PMC12775823, “Glucosylceramide regulates depression through activating peroxisome proliferator-activated receptor gamma in dorsal striatum” (Theranostics, 2026).

Legend:
PPARγ [1] = test system: T1, PPARγ; test: PPARγ mRNA, protein and transcriptional activity in dorsal striatum of CRS-induced mice; type: in vivo; conditions: intra-dorsal striatum pioglitazone, GlcCer or combination
T1 construct: from tissue; host or cells: mouse dorsal striatum
Source text: Dorsal striatal tissues were processed in accordance with the RNA isolation kit's instructions (RC102/RC112; Vazyme Biotech Co.,Ltd), mRNA was reverse transcribed using HiScript® III All-in-one RT SuperMix (Vazyme Biotech Co.,Ltd), and cDNA was amplified using SYBR Green (Vazyme Biotech Co.,Ltd). The 2^-ΔΔCt method was used to analyze gene expression, and the relative level of the target gene was normalized to Gapdh. The primer sequences can be found in Supplemental materials Table S1.
Brain tissues were cut into small pieces and then centrifuged at 13,000 g for 15 min at 4 °C. Supernatants were collected, and proteins concentrations were determined by BCA assay. Samples were denatured at 95 °C for 5 min and subsequently stored at -80 °C for further use. Protein samples were loaded onto 10% SDS-PAGE and transferred on PVDF membranes. After being blocked with 5% nonfat dry milk in Tris-buffered saline with 0.1% Tween-20 for 1.5 h, the PVDF membranes were incubated with corresponding primary antibodies overnight at 4 °C. Membranes were then incubated with HRP-conjugated secondary antibodies for 1 h at room temperature and measured with chemiluminescence imaging system (ChemiScope; Clinx, China).
(§1) Nuclear extracts were prepared from N2a cells using a nuclear extraction kit according to the manufacturer protocol. The binding reaction between PPARγ and PPRE was carried out at 4°C for 16 h using 3 μg of nuclear extracts. The binding activity between PPARγ and PPRE was indicated by the change of optical density (OD) at 405 nm, and an enzyme reaction was measured by HRP-conjugated antibody in complex of PPRE/ PPARγ/antibody.

PPARγ-LBD = test system: T2, PPARγ-LBD; test: Bio-layer interferometry, PPARγ LBD; type: binding, human; conditions: biolayer interferometry, Figure S7D, E
T2 construct: human PPARγ-LBD (residues 223-505); 6xHis; made in house; host or cells: E. coli BL21 (DE3)
Description: The bio-layer interferometry assay was performed at 30 °C on the Octet RED96 System (ForteBio, USA) with PBS as the running buffer. Purified PPARγ-LBD were biotinylated using the EZ-Link Sulfo-NHS-LC-Biotinylation Kit (Thermo Fisher Scientific, USA) according to the manufacturer's instructions. The biotinylated PPARγ was then immobilized onto SSA Biosensors (ForteBio, USA), pre-equilibrated in the running buffer. The biosensors were incubated with various concentrations of the GlcCer or pioglitazone, followed by dissociation. The data were analyzed and the binding parameters were determined using the software supplied by the manufacturer.

PPARγ [2] = test system: T3, PPARγ; test: PPARγ transcription activity assay (PPRE binding), N2a cells; type: cell-based
T3 construct: endogenous in cells; host or cells: N2a cells (nuclear extract)
Description: as §1

CRS-induced mice = test: Behavioral tests (OFT, EPMT, LDT, SPT, FST) in chronic restraint stress mice, intra-dorsal striatal infusion; type: in vivo
Description: For intracranial injection, mice were surgically implanted with sterilized guide cannulae in dorsal striatum. […] Mice were intraperitoneally injected with CNO (1 mg/kg/d) before behavioral test.
Chronic restraint stress (CRS). For the CRS protocol, male C57BL/6J mice (8-10 weeks old) were obtained from Charles River Laboratories (Beijing, China). Mice were individually placed into well-ventilated 50 mL conical restraint tube (suitable for mice weighing 20-25 g) with multiple holes for 4 h daily between 10:00 AM and 2:00 PM to minimize circadian rhythm variations. The restraint stress procedure was conducted for 14 consecutive days. Then, all behavioral test were performed between 10:00 AM and 18:00 PM.
Elevated plus maze test (EPMT).
Light-dark Transition test (LDT).
Sucrose preference test (SPT).
Forced swimming test (FST).

human PPARγ-LBD = test: Surface plasmon resonance, PPARγ LBD; conditions: Figure S7B, C
Description: Prepared human PPARγ-LBD and human PPARγ-full length (Active Motif, USA) were immobilized onto a CM5 sensor chip using amine coupling. Briefly, the protein was diluted to 50 μg/mL in immobilization buffer and covalently attached to the CM5 chip via an Amine Coupling Kit (Cytiva, USA), following the manufacturer's instructions. A channel without immobilized protein was used as a blank control. […] Gradient concentrations of GlcCer were injected over both channels at a flow rate of 30 μL/min, with an association time and dissociation time of 85 s each.

PPARγ [3] = test system: T1, PPARγ; test: Lipid-protein pull down assay, dorsal striatum lysate; type: binding; conditions: GlcCer-beads, dorsal striatum of mice
Description: Dorsal striatal tissues were cut into small pieces and then centrifuged at 13,000 g for 15 min at 4 °C. Supernatants were collected, and protein concentrations were determined using BCA assay. GlcCer-beads were equilibrated by washing them three times with ice-cold PBS. The clarified cell lysate was added to the equilibrated beads, then the mixture was incubated on a rotator at 4 °C for overnight, use approximately 500 µg of total protein per reaction. After incubation, the beads were washed three times with ice-cold PBS. Following the final wash, the beads were resuspended in SDS-PAGE sample buffer and heat at 95°C for 5 min to elute the bound proteins. The eluted sample was used to western blotting analysis.

[4] = CRS mice, pioglitazone 1 μM, GlcCer 200 μM, 1 μL/side, or combination

Glucosylceramide [GlcCer] was tested, and the “PPARγ activity in the dorsal striatum” value (PPARγ [1]) was “significantly enhanced”, the “PPARγ mRNA or protein expression” value (PPARγ [1]) was “neither pioglitazone, GlcCer, nor their combination altered” and the “binding affinity for the LBD (BLI)” value (PPARγ-LBD) was “minimal binding affinity”. For the same substance, the “PPARγ transcriptional (DNA binding) activity in N2a cells” value (PPARγ [2]; Figure 5H, GlcCer, pioglitazone or combination) was “increased PPARγ transcriptional activity in a dose-dependent manner”, the “PPARγ transcriptional activity, nuclear extracts from N2a cells” value (PPARγ [2]; pioglitazone (100 nM), GlcCer (10 μM), or their combination, Figure S7F) was “significantly increased” and the “time spent in the center area (OFT)” value (CRS-induced mice; CRS mice vs vehicle, pioglitazone 1 μM, GlcCer 200 μM, 1 μL/side, or combination) was “significant increase”. For the same substance, the “stress-induced depression-like behaviors (overall)” value (CRS-induced mice; CRS mice, administration of GlcCer, pioglitazone or combined) was “reverses”, the “immobility duration in the FST” value (CRS-induced mice; [4]) was “decreased” and the “sucrose preference in the SPT” value (CRS-induced mice; [4]) was “increased”. For the same substance, the “binding affinity for the LBD (SPR)” value (human PPARγ-LBD) was “minimal binding affinity” and the “interaction between PPARγ and GlcCer (lipid-protein binding assay)” value (PPARγ [3]) was “direct interaction”.
